Laboratory results from ChEMBL document CHEMBL1201862, “PubChem BioAssay data set” (2004).
The source made the active and inactive calls.

Tests used:
[1] = target: T1, High affinity choline transporter 1 (Homo sapiens, UniProt Q9GZV3); assay: human choline transporter blockers, potency – cell-based, 5-point CRC, membrane potential dye, dose response (AID 504840); type: functional
T1 sequence (Q9GZV3 whole entry): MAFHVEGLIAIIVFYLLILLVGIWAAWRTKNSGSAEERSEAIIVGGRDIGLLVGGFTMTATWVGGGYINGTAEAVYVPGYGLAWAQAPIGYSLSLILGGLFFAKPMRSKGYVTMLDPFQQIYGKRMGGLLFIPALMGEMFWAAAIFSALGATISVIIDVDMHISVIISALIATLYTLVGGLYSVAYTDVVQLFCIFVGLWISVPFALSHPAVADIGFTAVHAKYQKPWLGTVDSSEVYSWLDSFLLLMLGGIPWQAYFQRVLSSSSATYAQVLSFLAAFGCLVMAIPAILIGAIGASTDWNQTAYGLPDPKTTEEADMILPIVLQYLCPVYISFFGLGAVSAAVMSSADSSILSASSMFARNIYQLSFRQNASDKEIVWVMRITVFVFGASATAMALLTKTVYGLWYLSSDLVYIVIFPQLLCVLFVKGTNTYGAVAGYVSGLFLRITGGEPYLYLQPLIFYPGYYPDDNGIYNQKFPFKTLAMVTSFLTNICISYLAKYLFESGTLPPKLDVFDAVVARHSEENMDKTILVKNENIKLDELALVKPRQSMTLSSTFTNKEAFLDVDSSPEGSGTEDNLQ

[2] = test system: Vero; assay: cells; type: functional; conditions: Chlorocebus sabaeus
[3] = HEK-293T viability loss after treatment – luminescence, T-cell screen hits, cytotoxicity control for TCR NF-kB inhibitor project, dose response (AID 489026); type: functional, cell-based;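 note: cells exposed to compound about 14 hours before the viability readout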
[4] = target: Nonstructural protein 1 (Influenza A virus, UniProt Q194T2); type: functional, Influenza A virus (A/California/07/2009(H1N1))
Sequence of Nonstructural protein 1 (Q194T2 whole entry): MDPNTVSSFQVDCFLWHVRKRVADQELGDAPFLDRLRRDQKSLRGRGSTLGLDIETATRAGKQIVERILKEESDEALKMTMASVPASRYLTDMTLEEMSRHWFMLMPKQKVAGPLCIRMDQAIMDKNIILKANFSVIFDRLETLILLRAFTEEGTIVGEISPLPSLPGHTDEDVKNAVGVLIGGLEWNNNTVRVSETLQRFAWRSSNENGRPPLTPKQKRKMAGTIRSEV

[5] = target: Induced myeloid leukemia cell differentiation protein Mcl-1 (Homo sapiens, UniProt Q07820); type: functional
Sequence of Induced myeloid leukemia cell differentiation protein Mcl-1 (Q07820 whole entry): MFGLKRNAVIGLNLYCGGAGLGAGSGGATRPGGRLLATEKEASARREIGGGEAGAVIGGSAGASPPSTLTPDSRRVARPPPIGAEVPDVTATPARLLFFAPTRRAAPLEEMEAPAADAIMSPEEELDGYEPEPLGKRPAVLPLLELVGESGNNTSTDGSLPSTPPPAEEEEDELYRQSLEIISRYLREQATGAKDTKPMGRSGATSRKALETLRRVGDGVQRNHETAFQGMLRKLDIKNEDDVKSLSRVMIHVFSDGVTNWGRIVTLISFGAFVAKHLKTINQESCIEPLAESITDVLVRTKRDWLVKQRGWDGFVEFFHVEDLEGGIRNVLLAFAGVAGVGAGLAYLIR

[6] = DRD fibroblast viability loss – cell-based, non-viral oncogenic, luminescence, dose response (AID 1934); type: functional; conditions: Homo sapiens
[7] = Luminescence Cell-Based Dose Response HTS to Identify Inhibitors of 5'UTR Stem-Loop Driven Prion Protein mRNA Translation in H4 Neuroglioblastoma Cells. [Related pubchem assays: 1827 (Project Summary), 1813 (Primary HTS)]; type: functional
[8] = luciferase reporter signal suppression in cells – H4 neuroglioma cells, luminescence, dose response (AID 1990); type: functional, cell-based
[9] = test system: BJ; assay: cells; type: functional, cell-based; conditions: Homo sapiens
[10] = test system: BJ; assay: BJ-TERT-LT-ST fibroblast viability loss – cell-based, RAS-independent, luminescence, dose response (AID 1935); type: functional; conditions: Homo sapiens;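 note: BJ fibroblasts immortalized with TERT plus LT and ST oncogenes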
[11] = test system: BJ; assay: BJ-TERT fibroblast viability loss – cell-based, RAS-independent, luminescence, dose response (AID 1933); type: functional; conditions: Homo sapiens
[12] = Luminescence Cell-Based Dose Confirmation HTS to Identify Activators of 5'UTR Stem-Loop Driven Alpha-Synuclein mRNA Translation in H4 Neuroglioblastoma Cells. [Related pubchem assays: 1829 (Project Summary), 1814 (Primary HTS)]; type: functional
[13] = Luminescence Cell-Based Dose Response HTS to Identify Activators of Luciferase Translation or Activity in H4 […] Cells. [Related pubchem assays: 1829 (Project Summary), 1814 (Primary HTS)]; type: functional
[14] = test system: H4; assay: Luminescence Cell-Based Dose Response HTS to Identify Activators of 5'UTR Stem-Loop Driven Prion Protein mRNA Translation in H4 Neuroglioblastoma Cells. [Related pubchem assays: 1829 (Project Summary), 1814 (Primary HTS)]; type: functional; conditions: Homo sapiens
[15] = target: Glucose-6-phosphate 1-dehydrogenase (Homo sapiens, UniProt P11413); assay: inhibition of Homo sapiens G6PD, dose series – biochemical, fluorescence, selectivity assay for P. falciparum G6PD inhibitor project, dose response (AID 504792); type: functional
Sequence of Glucose-6-phosphate 1-dehydrogenase (P11413 whole entry): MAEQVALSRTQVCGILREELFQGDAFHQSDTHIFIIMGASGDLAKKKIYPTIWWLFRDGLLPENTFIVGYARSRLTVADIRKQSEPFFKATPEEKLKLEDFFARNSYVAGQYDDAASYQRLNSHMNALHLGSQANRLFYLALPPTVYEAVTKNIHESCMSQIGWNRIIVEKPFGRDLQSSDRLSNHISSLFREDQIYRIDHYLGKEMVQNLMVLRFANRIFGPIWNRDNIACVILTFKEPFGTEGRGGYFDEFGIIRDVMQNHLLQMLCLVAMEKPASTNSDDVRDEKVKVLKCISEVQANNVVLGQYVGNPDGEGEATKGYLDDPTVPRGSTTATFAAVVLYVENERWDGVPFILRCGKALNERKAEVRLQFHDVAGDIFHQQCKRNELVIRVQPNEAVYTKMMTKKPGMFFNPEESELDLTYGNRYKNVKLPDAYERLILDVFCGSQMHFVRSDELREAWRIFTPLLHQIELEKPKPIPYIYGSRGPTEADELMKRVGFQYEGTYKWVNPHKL

[16] = target: T2, Heat shock factor protein 1 (Mus musculus, UniProt P38532); assay: decrease of HSF1-responsive luciferase luminescence – cell-based, NIH3T3, dose retest, confirmation (AID 2382); type: functional;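 note: NIH3T3 fibroblasts with HSF1-driven luciferase reporter stressed by proteasome inhibitor MG132; luminescence from HSF1-driven luciferase expression after 8 hours of MG132 stress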
T2 sequence (P38532 whole entry): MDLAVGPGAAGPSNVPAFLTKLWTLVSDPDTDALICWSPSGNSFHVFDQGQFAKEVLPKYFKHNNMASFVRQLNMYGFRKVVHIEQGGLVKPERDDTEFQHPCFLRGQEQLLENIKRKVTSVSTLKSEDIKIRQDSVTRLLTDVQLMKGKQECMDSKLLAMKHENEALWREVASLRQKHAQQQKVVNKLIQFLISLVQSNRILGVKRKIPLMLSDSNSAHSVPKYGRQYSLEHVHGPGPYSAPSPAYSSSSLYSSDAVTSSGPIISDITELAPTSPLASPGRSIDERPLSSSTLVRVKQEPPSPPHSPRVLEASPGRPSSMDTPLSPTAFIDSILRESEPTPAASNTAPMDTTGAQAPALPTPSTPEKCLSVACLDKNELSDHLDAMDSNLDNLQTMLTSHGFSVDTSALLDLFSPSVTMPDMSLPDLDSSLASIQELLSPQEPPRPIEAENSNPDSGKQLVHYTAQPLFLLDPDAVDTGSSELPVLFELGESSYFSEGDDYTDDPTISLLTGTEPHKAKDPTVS

[17] = target: T3, Microphthalmia-associated transcription factor (Homo sapiens, UniProt O75030); assay: reducers of TRPM1 reporter luminescence, concentration series – cell-based, SK-MEL-5, cherry-picked, set 3, MITF inhibitor project, dose response (AID 493073); type: functional;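 note: SK-MEL-5 melanoma cells with luciferase driven by the MITF target TRPM1 promoter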
T3 sequence (O75030 whole entry): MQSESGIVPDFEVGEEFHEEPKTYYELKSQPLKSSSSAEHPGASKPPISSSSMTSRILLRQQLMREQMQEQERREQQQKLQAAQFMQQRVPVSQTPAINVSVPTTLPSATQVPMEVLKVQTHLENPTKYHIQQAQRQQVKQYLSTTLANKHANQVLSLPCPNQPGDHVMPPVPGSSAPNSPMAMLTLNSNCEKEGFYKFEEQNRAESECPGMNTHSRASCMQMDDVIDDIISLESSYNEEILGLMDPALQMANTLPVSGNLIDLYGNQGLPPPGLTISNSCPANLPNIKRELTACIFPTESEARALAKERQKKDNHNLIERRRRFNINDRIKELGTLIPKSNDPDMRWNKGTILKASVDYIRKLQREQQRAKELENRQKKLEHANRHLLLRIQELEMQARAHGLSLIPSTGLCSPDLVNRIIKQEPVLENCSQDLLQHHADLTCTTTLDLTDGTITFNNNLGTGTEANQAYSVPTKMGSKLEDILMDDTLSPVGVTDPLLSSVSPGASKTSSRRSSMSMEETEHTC

[18] = target: T4, Rac GTPase-activating protein 1 (Homo sapiens, UniProt Q9H0H5); assay: blockers of MgcRacGAP-driven Rac1 GTP hydrolysis – biochemical, ADP Hunter fluorescence, primary and confirmatory, confirmation (AID 624330); type: functional
T4 sequence (Q9H0H5 whole entry): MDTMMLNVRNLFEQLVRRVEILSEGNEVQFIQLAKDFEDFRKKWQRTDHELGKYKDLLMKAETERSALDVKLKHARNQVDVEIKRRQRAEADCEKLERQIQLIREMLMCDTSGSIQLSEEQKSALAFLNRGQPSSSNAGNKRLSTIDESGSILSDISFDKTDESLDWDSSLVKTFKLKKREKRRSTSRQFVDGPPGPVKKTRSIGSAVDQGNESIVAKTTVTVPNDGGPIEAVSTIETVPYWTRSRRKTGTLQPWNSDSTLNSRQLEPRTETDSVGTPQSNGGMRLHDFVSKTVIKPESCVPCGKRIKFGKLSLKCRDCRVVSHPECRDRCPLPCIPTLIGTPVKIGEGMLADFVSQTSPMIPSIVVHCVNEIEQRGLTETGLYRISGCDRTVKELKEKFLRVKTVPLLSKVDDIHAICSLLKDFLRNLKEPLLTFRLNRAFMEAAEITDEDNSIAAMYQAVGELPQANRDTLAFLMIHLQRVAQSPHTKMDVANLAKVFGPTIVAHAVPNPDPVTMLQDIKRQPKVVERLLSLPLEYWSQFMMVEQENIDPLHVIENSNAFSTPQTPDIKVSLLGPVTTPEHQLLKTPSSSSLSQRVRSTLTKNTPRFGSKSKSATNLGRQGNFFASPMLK

## CC/C(=C(/CC)c1ccc(O)cc1)c1ccc(O)cc1 [DIETHYLSTILBESTROL]
[1]
  IC50: 12.6 µM (active)

## COc1cc(C(=O)N/N=C/c2cccc(Oc3ccccc3)c2)ccc1O
[2]
  CC50: > 25 µM (active)

## COc1cc(-c2noc(C)c2-c2ccc3[nH]ccc3c2)cc(OC)c1OC
[3]
  IC50: 32.5 µM (inactive)

## Cc1ccc(N2C(=O)/C(=C\NNc3ccc(S(=O)(=O)N4CCOCC4)cc3[N+](=O)[O-])c3ccccc3C2=O)c(C)c1
[4]
  IC50: 8.94 µM (active)
[5]
  IC50: 1.8 µM (not active)
[1]
  IC50: 12.3 µM (active)

## O=C(CNC(=O)c1ccco1)N=Nc1c(O)n(CCc2ccccc2)c2ccccc12
[6]
  EC50: 2.05 µM (active)
[3]
  IC50: > 80 µM (inactive)
[2]
  CC50: 2.46 µM (active)
[7]
  EC50: > 120 µM (not active)
[8]
  EC50: 12.2 µM (active)
[9]
  EC50: 17.7 µM (active)
[10]
  EC50: 1.45 µM (active)
[11]
  EC50: 3.21 µM (active)

## CCn1c(SCc2nc(-c3ccc(Cl)cc3)no2)nnc1-c1ccco1
[1]
  IC50: 15.2 µM (active)

## CCCN1C(=O)/C(=C2\SC(N3CCCCC3)=NC2=O)c2ccccc21
[4]
  IC50: 28.5 µM (active)
[12]
  EC50: 15.2 µM (active)
[13]
  EC50: 64.2 µM (active)
[14]
  EC50: > 120 µM (not active)

## COCc1cc(O)n2nc(C(C)(C)C)cc2n1
[15]
  IC50: > 80 µM (inactive)

## CC(C)c1ccc(/C=N/Nc2ccc(C(=O)O)cc2)cc1
[3]
  IC50: > 80 µM (inactive)
[16]
  EC50: < 0.16 µM (active)
[17]
  AC50: 3.53 µM (active)

## COc1cc(N)c2ncccc2c1OC
[18]
  IC50: 56.3 µM (active)
[15]
  IC50: > 80 µM (inactive)
